How the values were obtained:
PANC-1 xenograft tumors = assay: In vivo chemosensitization: growth of subcutaneous PANC-1 xenograft tumors; set-up: species or system mice; settings: complex i.v. three times per week, ODN 9 mg/kg (18 injections); Gemzar i.p. twice weekly 60 mg/kg (12 injections)
Method: The efficacy of the TfRscFv-LipA-AS HER-2 in treating PanCa in vivo was assessed using the subcutaneous PANC-1 xenograft mouse model. Athymic nude mice (5-9 mice/group with two tumors/mouse) bearing subcutaneous xenograft tumors of ˜50 mm^3 were treated three times per week with the TfRscFv-LipA-AS HER-2 complex containing ODN at 9 mg/kg/injection. As controls one group of animals received Gemzar® alone, the TfRscFv-LipA-AS HER-2 alone, or the combination of Gemzar® and the complex carrying the SC ODN. Gemzar® was given I.P. twice weekly at 60 mg/kg. The animals received a total of 18 i.v. injections of complex and 12 of Gemzar®.

[1] = test system: 17 kDa cleaved caspase 3 fragment; assay: Tumor-specific localization of the 17 kDa fragment in tumor, liver and lung of PANC-1 xenograft mice; assay type: in vivo; settings: PANC-1 tumor; ODN 10 mg/kg i.v. daily for six days; Gemzar 60 mg/kg i.p. x3; 24 hours after last injection
Method: PANC-1 tumors were induced by implantation of <1 mm^3 tumor sections from serially passaged PANC-1 xenograft tumors into 4-6 week old female nude mice. When the tumors reached approximately 100-200 mm^3 the TfRscFv-LipA-AS HER-2 complex was i.v. injected into the tail vein daily for six days. The dose of ODN (AS or SC) administered per mouse was 10 mg/kg/injection. For comparison to standard therapy, a separate animal received chemotherapeutic agent Gemzar® (i.p.) only (60 mg/kg/injection) every other day to a total of three injections. In addition, one mouse received the combination of TfRscFv-LipA-AS HER-2 and Gemzar® at the above dose and schedule, and, as a control, one received the combination of complex carrying SC ODN and Gemzar® at the above dose and schedule. All mice were sacrificed 24 hours after the last injection and tumor, liver and lung were harvested as in Example 1. To assess tumor specific targeting in this model HER-2 and the 17 kDa cleaved caspase 3 fragment expression in the tissues was examined by Western Blot analysis Examples 3 and 4. The effect of TfRscFv-LipA-AS HER-2 on induction of the 17 kDa fragment in tumor and tissue samples also screened for HER-2 levels was examined.

[2] = test system: components of the PI3K/AKT pathway and apoptosis; assay: Western analysis of signal transduction and apoptosis proteins in PANC-1 cells; assay type: cell-based, human
Description: (§1) Treatment of Pancreatic Cancer (PanCa) with the tumor targeting TfRscFv-LipA-AS HER-2 complex can down-regulate HER-2 expression (even when not overexpressed), thus negatively affecting cell growth/survival and positively enhancing apoptotic pathways leading to increased tumor cell killing.
The phosphorothioate sequence specific AS HER-2, complementary to the initiation codon region (5′-TCC ATG GTG CTC ACT-3′), and the control, non-sequence specific SC (5′-CTA GCC ATG CTT GTC-3′) ODNs were synthesized and purified by reverse phase HPLC by Ransom Hill Biosciences (Ramona, Calif.). […] PANC-1 or COLO 357 cells were seeded/in a six well plate and transfected 24 hours later with the TfRscFv-LipA complex carrying 1 μM (for PANC-1) or 0.5 μM (for COLO 357) AS HER-2 or SC HER-2 ODN (negative control). The cells were transfected with either oligo alone or, to look for a synergistic effect, in combination with gemcitabine (Gemzar®). At the indicated times, the cells were harvested, lysed in RIPA buffer, protein determined, run (60 ug total protein/lane) on a 4-20% gradient polyacrylamide/SDS gel and transferred to nitrocellulose for Western analysis as described in Examples 1, 3 and 4. To detect HER-protein expression the membranes were probed with the anti-human HER-2/Neu (C-18) rabbit polyclonal Ab (Santa Cruz Biotechnology) and the signal detected by ECL (Amersham). Change in protein expression as compared to untreated cells was also ascertained for total and/or phosphorylated Akt (Ser 473), a central component in the PI3K pathway (using an anti-Human polyclonal Ab, Cell Signaling Technology),phosphorylated BAD (Ser 136), an important factor in regulation of apoptosis (using an anti-human rabbit polyclonal antibody, Cell Signaling Technology), as well as cleaved caspase 3 (Asp 175) (using the rabbit polyclonal antibody, specific for the 17 kDa subunit, Cell Signaling Technology) and PARP/cleaved PARP (poly ADP ribopolymerase, another marker of apoptosis) using an anti-human rabbit polyclonal antibody, (Cell Signaling Technology) both downstream indicators of apoptosis.

[3] = test system: 17 kDa fragment of caspase 3; assay: 17 kDa fragment of caspase 3 in PANC-1 cells in vitro (Western); assay type: cell-based, human; settings: 9 hours, Gemzar 0.8 μM, ODN 1 μM
Method: A. To detect the presence of the 17 kDa active caspase 3 fragment in cell cultures the following procedure was used in subsequent Examples to isolate total protein from both living and dead floating cells. The medium from the cell culture vessel was removed and reserved.
To lyse the cells, resuspend the cell pellet in 150 μl-200 μl RIPA buffer (with freshly prepared inhibitors) per 3×10^6 cells. RIPA buffer is 1×PBS, 1% NP40, 0.5% sodium deoxycholate, 0.1% SDS (this may be made in large volumes). Add inhibitors at time of use from the following stock solutions:
In a further specific embodiment of this invention, it was determined that the cleaved 17 kDa subunit can be detected in tumor and/or blood as a means of verifying the efficacy of therapy with antisense (AS) HER-2, i.e. that the apoptotic pathway is induced by AS HER-2 treatment. […]
Also evaluated in vitro was the induction of the 17 kDa fragment by the combination of the TfRscFv-LipA-AS HER-2 plus the chemotherapeutic agent Gemzar® (gemcitabine).

[4] = test system: components of the PI3K/AKT pathway and apoptosis; assay: Western analysis of signal transduction and apoptosis proteins in COLO357 cells; assay type: cell-based; settings: 8 hrs post-transfection
Description: as §1
The phosphorothioate sequence specific AS HER-2, complementary to the initiation codon region (5′-TCC ATG GTG CTC ACT-3′), and the control, non-sequence specific SC (5′-CTA GCC ATG CTT GTC-3′) ODNs were synthesized and purified by reverse phase HPLC by Ransom Hill Biosciences (Ramona, Calif.). […] PANC-1 or COLO 357 cells were seeded/in a six well plate and transfected 24 hours later with the TfRscFv-LipA complex carrying 1 μM (for PANC-1) or 0.5 μM (for COLO 357) AS HER-2 or SC HER-2 ODN (negative control). The cells were transfected with either oligo alone or, to look for a synergistic effect, in combination with gemcitabine (Gemzar®). At the indicated times, the cells were harvested, lysed in RIPA buffer, protein determined, run (60 ug total protein/lane) on a 4-20% gradient polyacrylamide/SDS gel and transferred to nitrocellulose for Western analysis as described in Examples 1, 3 and 4. To detect HER-protein expression the membranes were probed with the anti-human HER-2/Neu (C-18) rabbit polyclonal Ab (Santa Cruz Biotechnology) and the signal detected by ECL (Amersham). […]

Nc1ccn([C@@H]2O[C@H](CO)[C@@H](O)C2(F)F)c(=O)n1 [Gemzar®, gemcitabine]
tumor growth (PANC-1 xenograft tumors): only minimal effect
induction of the 17 kDa fragment in the tumor [1]: not evident
cleaved caspase 3 (appearance of the 17 kDa protein) ([2]; 8 hours post-transfection): not in those cells
cleaved PARP ([2]; 16 hours post-transfection): evident
cleaved caspase 3 (17 kDa fragment) ([2]; 16 hours post-transfection): evident
expression of 17 kDa fragment [3]: did not result in the expression of this fragment above background levels
cleaved PARP [4]: little or no evidence
cleaved caspase 3 (17 kDa subunit) [4]: little or no evidence

Source: patent publication US20040241088A1, “Method for evaluating the efficacy of certain cancer treatments” (Georgetown University, priority 2003, published 2004)
